Tests used:
[1] = target: T1, Angiotensin-converting enzyme (Rattus norvegicus, UniProt P47820); test: In vitro inhibition of Angiotensin I converting enzyme.
T1 sequence (P47820 whole entry): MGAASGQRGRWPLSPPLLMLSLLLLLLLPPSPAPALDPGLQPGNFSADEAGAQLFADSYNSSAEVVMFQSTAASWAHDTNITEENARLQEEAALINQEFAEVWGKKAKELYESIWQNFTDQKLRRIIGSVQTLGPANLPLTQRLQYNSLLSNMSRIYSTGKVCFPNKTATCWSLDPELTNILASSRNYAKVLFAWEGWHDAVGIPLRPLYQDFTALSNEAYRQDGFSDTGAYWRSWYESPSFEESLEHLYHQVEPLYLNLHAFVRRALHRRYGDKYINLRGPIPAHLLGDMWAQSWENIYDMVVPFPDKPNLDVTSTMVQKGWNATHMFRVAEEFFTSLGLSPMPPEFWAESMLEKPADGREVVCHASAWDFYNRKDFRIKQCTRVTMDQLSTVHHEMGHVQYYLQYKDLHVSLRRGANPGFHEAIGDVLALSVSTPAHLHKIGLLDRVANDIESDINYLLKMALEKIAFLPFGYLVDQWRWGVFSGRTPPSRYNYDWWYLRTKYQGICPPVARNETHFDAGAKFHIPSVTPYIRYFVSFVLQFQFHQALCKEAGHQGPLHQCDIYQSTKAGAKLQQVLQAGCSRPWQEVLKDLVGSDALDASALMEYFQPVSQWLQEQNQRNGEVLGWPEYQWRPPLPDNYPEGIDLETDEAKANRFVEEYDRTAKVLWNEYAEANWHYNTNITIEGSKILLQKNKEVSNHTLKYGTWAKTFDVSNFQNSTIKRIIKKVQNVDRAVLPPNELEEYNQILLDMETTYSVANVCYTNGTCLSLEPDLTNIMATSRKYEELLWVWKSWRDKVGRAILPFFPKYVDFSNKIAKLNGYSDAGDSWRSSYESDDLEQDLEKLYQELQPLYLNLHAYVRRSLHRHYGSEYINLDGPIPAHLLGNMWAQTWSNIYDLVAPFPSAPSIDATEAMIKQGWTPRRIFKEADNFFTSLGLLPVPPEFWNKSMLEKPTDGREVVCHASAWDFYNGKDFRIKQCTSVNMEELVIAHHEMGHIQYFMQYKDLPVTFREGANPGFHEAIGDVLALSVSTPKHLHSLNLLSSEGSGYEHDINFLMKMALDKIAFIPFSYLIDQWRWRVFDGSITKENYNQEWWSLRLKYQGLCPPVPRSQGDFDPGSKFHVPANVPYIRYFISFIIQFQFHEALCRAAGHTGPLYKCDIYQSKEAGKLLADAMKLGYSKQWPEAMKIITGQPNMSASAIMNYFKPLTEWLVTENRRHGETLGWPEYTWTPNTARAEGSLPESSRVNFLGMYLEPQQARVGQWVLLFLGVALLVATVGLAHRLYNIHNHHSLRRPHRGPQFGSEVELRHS

[2] = target: T2, Endothelin-converting enzyme 1 (Homo sapiens, UniProt P42892); test: In vitro inhibition of endothelin converting enzyme.
T2 sequence (P42892 whole entry): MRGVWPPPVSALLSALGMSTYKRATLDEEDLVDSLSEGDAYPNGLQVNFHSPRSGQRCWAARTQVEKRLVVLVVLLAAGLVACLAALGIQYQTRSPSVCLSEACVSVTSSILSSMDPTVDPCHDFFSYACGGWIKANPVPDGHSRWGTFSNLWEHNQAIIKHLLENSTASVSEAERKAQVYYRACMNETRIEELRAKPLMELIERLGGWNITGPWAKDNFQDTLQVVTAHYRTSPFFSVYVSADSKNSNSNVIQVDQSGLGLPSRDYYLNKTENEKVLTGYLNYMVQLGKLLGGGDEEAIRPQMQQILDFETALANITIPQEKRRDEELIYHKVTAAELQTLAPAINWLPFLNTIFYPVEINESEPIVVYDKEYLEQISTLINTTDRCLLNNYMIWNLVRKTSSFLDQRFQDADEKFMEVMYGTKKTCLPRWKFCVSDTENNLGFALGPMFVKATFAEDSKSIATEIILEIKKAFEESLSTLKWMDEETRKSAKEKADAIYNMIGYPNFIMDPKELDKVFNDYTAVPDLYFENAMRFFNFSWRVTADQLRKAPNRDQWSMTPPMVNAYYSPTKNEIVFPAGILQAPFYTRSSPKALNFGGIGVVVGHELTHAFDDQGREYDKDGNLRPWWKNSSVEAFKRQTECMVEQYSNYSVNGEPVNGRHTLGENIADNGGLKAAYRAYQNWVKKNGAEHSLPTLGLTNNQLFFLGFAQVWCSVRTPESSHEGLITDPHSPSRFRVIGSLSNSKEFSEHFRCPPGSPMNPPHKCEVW

Neprilysin = target: T3, Neprilysin (Oryctolagus cuniculus, UniProt P08049); test: In vitro inhibition of Neutral endopeptidase.
T3 sequence (P08049 whole entry): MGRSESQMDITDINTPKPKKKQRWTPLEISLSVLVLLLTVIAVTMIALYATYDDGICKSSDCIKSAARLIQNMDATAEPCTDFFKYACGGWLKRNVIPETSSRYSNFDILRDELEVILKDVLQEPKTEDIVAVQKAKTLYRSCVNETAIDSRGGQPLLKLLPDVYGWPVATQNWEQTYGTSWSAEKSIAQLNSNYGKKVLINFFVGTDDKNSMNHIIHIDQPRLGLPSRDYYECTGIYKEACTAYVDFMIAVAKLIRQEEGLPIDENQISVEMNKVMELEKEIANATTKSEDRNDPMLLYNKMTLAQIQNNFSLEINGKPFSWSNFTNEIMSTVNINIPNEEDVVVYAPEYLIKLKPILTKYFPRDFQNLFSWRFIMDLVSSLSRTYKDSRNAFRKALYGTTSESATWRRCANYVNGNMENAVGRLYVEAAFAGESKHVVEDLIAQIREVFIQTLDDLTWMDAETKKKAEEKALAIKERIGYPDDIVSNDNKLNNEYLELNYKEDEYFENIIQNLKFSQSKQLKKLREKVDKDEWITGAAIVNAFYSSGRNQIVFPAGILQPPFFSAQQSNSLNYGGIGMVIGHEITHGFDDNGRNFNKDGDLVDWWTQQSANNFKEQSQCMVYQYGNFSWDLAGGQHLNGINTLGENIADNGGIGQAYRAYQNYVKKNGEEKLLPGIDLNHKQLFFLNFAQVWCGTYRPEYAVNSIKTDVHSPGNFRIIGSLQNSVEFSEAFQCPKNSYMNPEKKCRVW

[3] = target: T4, Neprilysin (Mus musculus) (UniProt Q61391); test: In vivo inhibition of lung Neutral endopeptidase in mice was determined by blockage of enzyme at 25 mg/kg iv of compound; type: organism-based; design: dose 25 mg/kg
T4 sequence (whole entry): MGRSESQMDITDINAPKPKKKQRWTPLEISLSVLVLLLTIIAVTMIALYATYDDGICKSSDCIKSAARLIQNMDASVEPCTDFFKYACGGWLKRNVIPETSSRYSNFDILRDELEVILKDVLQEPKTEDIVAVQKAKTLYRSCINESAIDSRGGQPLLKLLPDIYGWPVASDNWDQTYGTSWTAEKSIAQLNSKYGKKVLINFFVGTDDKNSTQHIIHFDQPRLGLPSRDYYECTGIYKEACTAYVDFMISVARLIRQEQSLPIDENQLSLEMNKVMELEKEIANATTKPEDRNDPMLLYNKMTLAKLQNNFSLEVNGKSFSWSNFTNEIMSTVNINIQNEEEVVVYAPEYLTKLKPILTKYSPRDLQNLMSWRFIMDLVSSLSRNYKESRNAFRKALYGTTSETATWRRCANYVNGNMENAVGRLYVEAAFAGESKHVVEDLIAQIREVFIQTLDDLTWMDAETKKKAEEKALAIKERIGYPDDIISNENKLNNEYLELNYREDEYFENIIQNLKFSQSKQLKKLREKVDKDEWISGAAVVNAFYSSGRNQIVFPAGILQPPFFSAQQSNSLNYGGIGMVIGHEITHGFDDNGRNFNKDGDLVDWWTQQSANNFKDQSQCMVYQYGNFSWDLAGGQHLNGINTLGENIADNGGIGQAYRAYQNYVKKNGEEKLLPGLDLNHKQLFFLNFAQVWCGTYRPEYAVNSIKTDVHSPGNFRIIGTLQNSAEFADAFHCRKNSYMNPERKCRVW

Rattus norvegicus [4] = test: Decrease of mean arterial pressure (MAP) on iv administration of sodium salt at 30 mg/kg at 5 or 15 min prior to the big ET-1 challenge in wistar rats; type: functional, Artery
Rattus norvegicus [5] = test: Increase in MAP on intravenous injection of AI in vehicle at 1 nmol/kg iv in male wistar rats; type: functional
Rattus norvegicus [6] = test: Increase in mean arterial pressure (MAP) in anesthetized male wistar rats on iv injection of 1 nmol/kg big ET-1; type: functional, Artery

| Ki [1] [nM] | Ki [2] [nM] | Ki (Neprilysin) [nM] | inhibition [3] [%] | Compound | MAP (Rattus norvegicus [4]) [mmHg] | MAP (Rattus norvegicus [5]) [mmHg] | MAP (Rattus norvegicus [6]) [mmHg] |
| --- | --- | --- | --- | --- | --- | --- | --- |
| 12 | 31 | 5 |  | O=C(O)C(Cc1c[nH]c2ccccc12)NC(=O)C(CS)C1CCc2cc(Br)ccc21 (stereo unspecified) |  |  |  |
| 14 | 35 | 6 |  | CSc1ccc2c(c1)CCC2C(CS)C(=O)NC(Cc1c[nH]c2ccccc12)C(=O)O (stereo unspecified) |  |  |  |
| 3 | 210 | 11 |  | N#Cc1ccc2c(c1)CCC2C(CS)C(=O)NC(Cc1c[nH]c2ccccc12)C(=O)O (stereo unspecified) |  |  |  |
| 66 | 90 | 13 |  | O=C(O)[C@H](Cc1c[nH]c2ccccc12)NC(=O)[C@H](CS)[C@@H]1CCc2cc(Br)ccc21 |  |  |  |
| 44 | 370 | 15 |  | CN(C)c1ccc2c(c1)CCC2C(CS)C(=O)NC(Cc1c[nH]c2ccccc12)C(=O)O (stereo unspecified) |  |  |  |
| 58 | 110 | 9.4 |  | O=C(O)[C@H](Cc1c[nH]c2ccccc12)NC(=O)[C@@H](CS)[C@@H]1CCc2cc(Br)ccc21 |  |  |  |
| 27 | 140 | 14 |  | O=C(O)C(Cc1c[nH]c2ccccc12)NC(=O)C(CS)C1CCc2cc(-c3ccccc3)ccc21 (stereo unspecified) |  |  |  |
| 18 | 47 | 8 |  | CCOc1ccc2c(c1)CCC2C(CS)C(=O)NC(Cc1c[nH]c2ccccc12)C(=O)O (stereo unspecified) |  |  |  |
| 55 | 18 | 1.8 |  | O=C(O)[C@H](Cc1c[nH]c2ccccc12)NC(=O)[C@H](CS)[C@H]1CCc2cc(Br)ccc21 |  |  |  |
| 78 | 560 | 78 |  | COc1cc2c(cc1OC)C(C(CS)C(=O)NC(Cc1c[nH]c3ccccc13)C(=O)O)CC2 (stereo unspecified) |  |  |  |
| 8 | 760 | 16 |  | COc1cccc2c1CCC2C(CS)C(=O)NC(Cc1c[nH]c2ccccc12)C(=O)O (stereo unspecified) |  |  |  |
| 7 | 90 | 4 |  | O=C(O)C(Cc1c[nH]c2ccccc12)NC(=O)C(CS)C1CCc2cc(O)ccc21 (stereo unspecified) |  |  |  |
| 35 | 79 | 11 |  | COc1ccc2c(c1)C(C(CS)C(=O)NC(Cc1c[nH]c3ccccc13)C(=O)O)CC2 (stereo unspecified) |  |  |  |
| 4.1 | 28 | 3.8 | 70 | O=C(O)[C@H](Cc1c[nH]c2ccccc12)NC(=O)[C@@H](CS)[C@H]1CCc2cc(Br)ccc21 | -15.2 | 15 | 57.2 |

| Compound | Ki [1] [nM] | Ki [2] [nM] | Ki (Neprilysin) [nM] | inhibition [3] [%] | MAP (Rattus norvegicus [4]) [mmHg] | MAP (Rattus norvegicus [5]) [mmHg] | MAP (Rattus norvegicus [6]) [mmHg] |
| --- | --- | --- | --- | --- | --- | --- | --- |
| COc1ccc2c(c1)CC[C@@H]2[C@H](CS)C(=O)N[C@@H](Cc1c[nH]c2ccccc12)C(=O)O | 4.6 | 100 | 2.7 |  |  |  |  |
| COc1ccc2c(c1)CC[C@@H]2[C@@H](CS)C(=O)N[C@@H](Cc1c[nH]c2ccccc12)C(=O)O | 24 | 10 | 1.3 |  |  |  |  |
| COc1ccc2c(c1)CCC2C(CS)C(=O)NC(Cc1c[nH]c2ccccc12)C(=O)O (stereo unspecified) | 11 | 22 | 5 |  |  |  |  |
| COc1ccc2c(c1)CC[C@H]2[C@@H](CS)C(=O)N[C@@H](Cc1c[nH]c2ccccc12)C(=O)O | 30 | 180 | 15 |  |  |  |  |
| COc1ccc2c(c1)CC[C@H]2[C@H](CS)C(=O)N[C@@H](Cc1c[nH]c2ccccc12)C(=O)O | 70 | 1460 | 30 |  |  |  |  |

— ChEMBL document CHEMBL1135193, “N-[2-(Indan-1-yl)-3-mercapto-propionyl] amino acids as highly potent inhibitors of the three vasopeptidases (NEP, ACE, ECE): In vitro and In vivo activities” (Bioorg Med Chem Lett, 2002)
